Laboratory results taken from patent publication US9545413B2, “Methods of forming ciclopirox or derivatives thereof in a subject by administration of prodrug” (The University of Kansas, priority 2010, dated 2017).
Values joined by “and” are separate entries in the source; they are usually repeats but may differ in a detail not shown here. Equal values may be shown once. Marks after values point to notes of the source that are not given here.

Experiments:
Format in all cases: in vivo
[1] = Mouse plasma ciclopirox pharmacokinetics after 10 mg/kg IV bolus; conditions: for Plasma Ciclopirox Concentrations: individual animals A-F, phosphate disodium salt
Method: The plasma ciclopirox concentrations in (ng/mL) were determined following bolus administration of ciclopirox-POM prodrug at a 10 mg/kg IV bolus in a mouse model. Time points where data collected are shown in Table 1 to be at 5, 15, 30, 60, 90, 120, 180, and 240 minutes along with the data. […] The IV bolus formulation for prodrug was in 25 mM phosphate buffer.
(§1) Time points where data collected are shown in Table 1 to be at 5, 15, 30, 60, 90, 120, 180, and 240 minutes along with the data.
Additionally, mouse intravenous dose pharmacokinetics were determined.
(§2) The IV bolus and oral administrations are described above.

[2] = Mouse plasma ciclopirox pharmacokinetics after 30 mg/kg oral dose
Method: The plasma ciclopirox (i.e., CPX) concentrations in (ng/mL) were determined following bolus administration of ciclopirox-POM prodrug at a 30 mg/kg orally in a mouse model. Time points where data collected are shown in Table 3 to be at 5, 15, 30, 60, 90, 120, 180, and 240 minutes along with the data. […] The oral formulation is a composition having Orasweet SF along with the […].
as §1
Additionally, mouse oral dose pharmacokinetics were determined.
as §2

[3] = Detection of prodrug in plasma and urine after administration
Description: Accordingly, ciclopirox is readily bioavailable when given IV as the prodrug. […] Based on the data, it is reasonable to believe that the ciclopirox-POM prodrug is rapidly converted to ciclopirox.
Accordingly, ciclopirox is readily bioavailable when given IV as the prodrug. […] Based on the data, it is reasonable to believe that the ciclopirox-POM prodrug is rapidly converted back to ciclopirox.

[4] = in vivo, iv, 10 mg/kg, Plasma Ciclopirox Concentrations
[5] = in vivo, iv, 10 mg/kg, Plasma Ciclopirox Concentrations, Mean
[6] = mouse, in vivo, po, 30 mg/kg, Plasma Ciclopirox Concentrations
[7] = mouse, in vivo, po, 30 mg/kg, Plasma Ciclopirox Concentrations, Mean
[8] = ciclopirox, mouse, 30 mg/kg oral

Work on `Cc1cc(C2CCCCC2)n(O)c(=O)c1` [Ciclopirox Olamine, reference compound] yielded an Alpha rate constant ([1]; in vivo, iv, 10 mg/kg) of 0.08802 min⁻¹, a Beta rate constant ([1]; in vivo, iv, 10 mg/kg) of 0.01208 min⁻¹ and a Vdbeta ([1]; in vivo, iv, 10 mg/kg) of 4.5652 L/kg. The clearance ([1]; in vivo, iv, 10 mg/kg) was 55.2 mL/min/kg, the AUC ([1]; in vivo, iv, 10 mg/kg, AUC (CPX AUC)) was 2340 ng·h/mL and the half-life ([1]; in vivo, iv, 10 mg/kg, Alpha Half-life) was 7.87 min. The half-life ([1]; in vivo, iv, 10 mg/kg, Beta Half-life) was 57.4 min, the concentration at 5 min [1, 4] was 6090 ng/mL and the concentration at 60 min [1, 4] was 171 ng/mL. It also gave a concentration at 90 min [1, 4] of 45.2 ng/mL, a concentration at 120 min [1, 4] of 46.1 ng/mL and a concentration at 240 min [1, 4] of 12 ng/mL. The concentration at 5 min [1, 5] was 4880 ng/mL, the concentration at 15 min [1, 5] was 892 ng/mL and the concentration at 30 min [1, 5] was 354 ng/mL. It also gave a concentration at 60 min [1, 5] of 133 ng/mL, a concentration at 90 min [1, 5] of 58.7 ng/mL and a concentration at 120 min [1, 5] of 43.2 ng/mL. For the same compound, the concentration at 180 min [1, 5] was 25.2 ng/mL, the concentration at 240 min [1, 5] was 15.9 ng/mL and the bioavailability ([2]; mouse, in vivo, po) was 21%. It also gave an AUC ([2]; mouse, in vivo, po, 30 mg/kg) of 956 ng·h/mL, a Beta rate constant ([2]; mouse, in vivo, po, 30 mg/kg) of 0.00916 min⁻¹ and a CL/F ([2]; mouse, in vivo, po, 30 mg/kg) of 405 mL/min/kg. The Cmax ([2]; mouse, in vivo, po, 30 mg/kg) was 548 ng/mL, the Tmax ([2]; mouse, in vivo, po, 30 mg/kg) was 15 min and the half-life ([2]; mouse, in vivo, po, 30 mg/kg) was 75.7 min. The “Plasma Ciclopirox Concentrations” value ([2]; mouse, in vivo, po, 30 mg/kg, 0 min) was 0 ng/mL, the concentration at 0 min [2, 6] was 0 ng/mL and the concentration at 15 min [2, 6] was 478 ng/mL. It also gave a concentration at 30 min [2, 6] of 427 ng/mL, a concentration at 180 min [2, 6] of 78.2 ng/mL and a concentration at 240 min [2, 6] of 72.3 ng/mL. For the same compound, the concentration at 0 min [2, 7] was 0 ng/mL, the concentration at 15 min [2, 7] was 548 ng/mL and the concentration at 30 min [2, 7] was 449 ng/mL. It also gave a concentration at 60 min [2, 7] of 309 ng/mL, a concentration at 90 min [2, 7] of 260 ng/mL and a concentration at 120 min [2, 7] of 151 ng/mL. The concentration at 180 min [2, 7] was 80.1 ng/mL and the concentration at 240 min [2, 7] was 74.7 ng/mL.
With `Cc1cc(C2CCCCC2)n(OCOP(=O)([O-])[O-])c(=O)c1.[Na+].[Na+]` [Ciclopirox-POM] the “Plasma Ciclopirox Concentrations” value ([1]; 10 mg/kg IV bolus, 5 min, 10 mg/kg) was 7280 ng/mL and 7320 ng/mL and 6370 ng/mL and 9700 ng/mL and 8500 ng/mL and 8860 ng/mL, the “Plasma Ciclopirox Concentrations, Mean” value ([1]; 10 mg/kg IV bolus, 5 min) was 8005 ng/mL and the “Plasma Ciclopirox Concentrations” value ([1]; 10 mg/kg IV bolus, 15 min, 10 mg/kg) was 3310 ng/mL and 3180 ng/mL and 1520 ng/mL and 1370 ng/mL and 4010 ng/mL and 3190 ng/mL. The “Plasma Ciclopirox Concentrations, Mean” value ([1]; 10 mg/kg IV bolus, 15 min) was 2763.3 ng/mL, the “Plasma Ciclopirox Concentrations” value ([1]; 10 mg/kg IV bolus, 30 min, 10 mg/kg) was 994 ng/mL and 1200 ng/mL and 986 ng/mL and 1030 ng/mL and 1080 ng/mL and 452 ng/mL and the “Plasma Ciclopirox Concentrations, Mean” value ([1]; 10 mg/kg IV bolus, 30 min) was 957 ng/mL. For the same compound, the “Plasma Ciclopirox Concentrations” value ([1]; 10 mg/kg IV bolus, 60 min, 10 mg/kg) was 410 ng/mL and 259 ng/mL (2×) and 284 ng/mL and 409 ng/mL and 436 ng/mL, the “Plasma Ciclopirox Concentrations, Mean” value ([1]; 10 mg/kg IV bolus, 60 min) was 342.8 ng/mL and the “Plasma Ciclopirox Concentrations” value ([1]; 10 mg/kg IV bolus, 90 min, 10 mg/kg) was 97.6 ng/mL and 157 ng/mL and 74.2 ng/mL and 79.1 ng/mL and 162 ng/mL and 168 ng/mL. The “Plasma Ciclopirox Concentrations, Mean” value ([1]; 10 mg/kg IV bolus, 90 min) was 123 ng/mL, the “Plasma Ciclopirox Concentrations” value ([1]; 10 mg/kg IV bolus, 120 min, 10 mg/kg) was 58 ng/mL and 73.7 ng/mL and 57.9 ng/mL and 19.3 ng/mL and 71.7 ng/mL and 84.8 ng/mL and the “Plasma Ciclopirox Concentrations, Mean” value ([1]; 10 mg/kg IV bolus, 120 min) was 60.9 ng/mL. For the same compound, the “Plasma Ciclopirox Concentrations” value ([1]; 10 mg/kg IV bolus, 180 min, 10 mg/kg) was 18.1 ng/mL and 23 ng/mL and 19.5 ng/mL and 34.8 ng/mL and 19.7 ng/mL and 37.7 ng/mL, the “Plasma Ciclopirox Concentrations, Mean” value ([1]; 10 mg/kg IV bolus, 180 min) was 25.5 ng/mL and the “Plasma Ciclopirox Concentrations” value ([1]; 10 mg/kg IV bolus, 240 min, 10 mg/kg) was 13 ng/mL and 10 ng/mL (2×) and 15 ng/mL and 12 ng/mL and 8 ng/mL. For the same compound, the “Plasma Ciclopirox Concentrations, Mean” value ([1]; 10 mg/kg IV bolus, 240 min) was 11.1 ng/mL, the “CPX Bioavailability Following Prodrug Administration” value ([1]; IV administration, prodrug compared to olamine salt) was 1.143 and the “Alpha Half-life” value ([1]; ciclopirox, 10 mg/kg IV bolus) was 9.84 min. For the same compound, the Alpha rate constant ([1]; ciclopirox, 10 mg/kg IV bolus) was 0.07043 min⁻¹, the “Beta Half-life” value ([1]; ciclopirox, 10 mg/kg IV bolus) was 35.92 min and the Beta rate constant ([1]; ciclopirox, 10 mg/kg IV bolus) was 0.01929 min⁻¹. The CL ([1]; ciclopirox, 10 mg/kg IV bolus) was 48.275* mL/min/kg, the Vdbeta ([1]; ciclopirox, 10 mg/kg IV bolus) was 2.502 L/kg and the “Beta Half-life” value [2, 8] was 52.76 min. It also gave a Beta rate constant [2, 8] of 0.01316 min⁻¹, a CL/F [2, 8] of 722.06 mL/min/kg and a Cmax [2, 8] of 520.3 ng/mL. The Tmax [2, 8] was 15 min, the “Bioavailability following oral administration” value ([2]; mice, oral administration) was 12% and the “Plasma Ciclopirox Concentrations” value ([2]; mouse, 30 mg/kg oral dose, 0 min, individual animals A-F) was 0 ng/mL. For the same compound, the “Plasma Ciclopirox Concentrations, Mean” value ([2]; mouse, 30 mg/kg oral dose, 0 min) was 0 ng/mL, the “Plasma Ciclopirox Concentrations” value ([2]; mouse, 30 mg/kg oral dose, 15 min, individual animals A-F, phosphate disodium salt, 30 mg/kg) was 388 ng/mL and 646 ng/mL and 857 ng/mL and 245 ng/mL and 479 ng/mL and 507 ng/mL and the “Plasma Ciclopirox Concentrations, Mean” value ([2]; mouse, 30 mg/kg oral dose, 15 min) was 520.3 ng/mL. The “Plasma Ciclopirox Concentrations” value ([2]; mouse, 30 mg/kg oral dose, 30 min, individual animals A-F, phosphate disodium salt, 30 mg/kg) was 302 ng/mL and 252 ng/mL and 264 ng/mL and 317 ng/mL and 207 ng/mL and 342 ng/mL, the “Plasma Ciclopirox Concentrations, Mean” value ([2]; mouse, 30 mg/kg oral dose, 30 min) was 280.7 ng/mL and the “Plasma Ciclopirox Concentrations” value ([2]; mouse, 30 mg/kg oral dose, 60 min, individual animals A-F, phosphate disodium salt, 30 mg/kg) was 129 ng/mL and 404 ng/mL and 154 ng/mL and 229 ng/mL and 171 ng/mL and 207 ng/mL. The “Plasma Ciclopirox Concentrations, Mean” value ([2]; mouse, 30 mg/kg oral dose, 60 min) was 215.7 ng/mL, the “Plasma Ciclopirox Concentrations” value ([2]; mouse, 30 mg/kg oral dose, 90 min, individual animals A-F, phosphate disodium salt, 30 mg/kg) was 91 ng/mL and 66.8 ng/mL and 146 ng/mL and 137 ng/mL and 120 ng/mL and 80.3 ng/mL and the “Plasma Ciclopirox Concentrations, Mean” value ([2]; mouse, 30 mg/kg oral dose, 90 min) was 106.9 ng/mL. The “Plasma Ciclopirox Concentrations” value ([2]; mouse, 30 mg/kg oral dose, 120 min, individual animals A-F, phosphate disodium salt, 30 mg/kg) was 72.5 ng/mL and 60.6 ng/mL and 64.6 ng/mL and 81.4 ng/mL and 83.6 ng/mL, the “Plasma Ciclopirox Concentrations, Mean” value ([2]; mouse, 30 mg/kg oral dose, 120 min) was 72.5 ng/mL and the “Plasma Ciclopirox Concentrations” value ([2]; mouse, 30 mg/kg oral dose, 180 min, individual animals A-F, phosphate disodium salt, 30 mg/kg) was 36.8 ng/mL and 45.1 ng/mL and 59.1 ng/mL and 66.4 ng/mL and 44.9 ng/mL and 44 ng/mL. For the same compound, the “Plasma Ciclopirox Concentrations, Mean” value ([2]; mouse, 30 mg/kg oral dose, 180 min) was 49.4 ng/mL, the “Plasma Ciclopirox Concentrations” value ([2]; mouse, 30 mg/kg oral dose, 240 min, individual animals A-F, phosphate disodium salt, 30 mg/kg) was 9.51 ng/mL and 19 ng/mL (2×) and 14.7 ng/mL and 38.1 ng/mL and the “Plasma Ciclopirox Concentrations, Mean” value ([2]; mouse, 30 mg/kg oral dose, 240 min) was 20.1 ng/mL. The Foral ([2]; mouse, oral 30 mg/kg v. IV bolus 10 mg/kg of the same substance) was 0.06686, the “CPX Bioavailability Following Prodrug Administration” value ([2]; mouse, oral administration, prodrug compared to olamine salt) was 0.5603 and the “Detection of the prodrug in plasma” value ([3]; following IV and oral administration) was “inability to detect”. The “Detection of the prodrug in plasma and urine” value ([3]; following IV, oral, subcutaneous and intraperitoneal administration) was “inability to detect”.
